Results: patent publication US11898114B2, “Reactions and methods for producing fuels” (Alliance for Sustainable Energy, LLC, priority 2020, dated 2024)
Read-outs that look alike come from different tables or passages of the source. Marks after values point to notes of the source that are not given here.

Legend:
[1] = Water solubility (extraction into water, TOC and GC-MS-FID); type: physicochemical; conditions: component of B*POME1-6 extracted into water, 1:5 water:B*POME1-6
Description: The aqueous layer was then analyzed by total organic carbon (TOC) to determine the amount of the fuel product that was extracted into water. […] The concentration of each component was approximated from the FID response to estimate both the total amount of fuel product and relative solubility of individual components. […] Aqueous phases were diluted 1:2 with methanol. An Agilent 8890 GC/FID—5977B MS system was used for analysis. A volume of 1.0 μL was injected into a split/splitless inlet set to 275° C. and a split ratio of 1:100. Compounds were separated using an Rtx-50 column (50% phenyl polydimethylsiloxane, Restek) of dimensions 30 m×0.25 mm×0.25 μm with a helium carrier gas at a flow rate of 1.0 mL/min. A post column splitter was used to divert column effluent simultaneously to FID and MS detectors for qualitative and quantitative analysis. The GC oven temperature was held at 40° C. for 2 minutes, then ramped to 140° C. at 7° C./min, followed by a ramp to 290° C. at 12° C./min and held for 10 minutes. The MS transfer line and FID temperatures were set to 350° C. The MS detector was operated in continuous scan mode from m/z 29 to 300. The FID response was calibrated using a standard of 2,5-dimethylfuran prepared gravimetrically in acetone.

[2] = Boiling point range (TGA-based simulated distillation); type: physicochemical; conditions: neat
Description: (§1) Boiling point range of the target product was determined by a thermogravimetric analysis (TGA) based simulated distillation. Distillation temperatures were not determined via the standard method for diesel fuel, ASTM D86, due to the limited volume of sample available and gas chromatography based simulated distillation was not utilized given the relatively polar nature of POMEs. Analysis was conducted using a CAHN TG-131 TGA under flowing nitrogen with a ramp rate of 50° C./min from 25 to 550° C. The sample size was ca. 250 mg. The distillation parameters were selected to generate curves that closely matched ASTM D86 distillation values. The results of this method were validated using a standard fuel oil designed for validating ASTM D86 (Accustandard). Cloud point was measured using a Phase Technology Series 70X according to ASTM D5773; the method uncertainty is typically ±2.5° C. Flash point was measured according to ASTM D7094-17a with a method reproducibility stated as ±5.5° C. Indicated cetane number (ICN) was measured using an Advanced Fuel Ignition Delay Analyzer (AFIDA) instrument according to ASTM D8183-18 and where reproducibility is calculated as ±0.006407(ICN)^1.47. Higher heating value (HHV) and lower heating value (LHV) were determined according to ASTM D240-19 with a method reproducibility of ±0.4 MJ/kg.

[3] = Lower heating value (ASTM D240-19); type: physicochemical; conditions: neat, measured
Description: as §1, with “The results of this method were validated using a standard fuel oil designed for validating ASTM D86 (Accustandard).” left out
(§2) Higher heating value (HHV) and lower heating value (LHV) were determined according to ASTM D240-19 with a method reproducibility of ±0.4 MJ/kg. […] Lubricity was measured using ASTM D6079-18. […]

[4] = literature values (Fioroni, et al.; Lautenschütz, et al.; reported); cited from earlier work
[5] = Flash point (ASTM D7094-17a neat; D6450-16a blends); type: physicochemical; conditions: measured
Description: as §1, with “The results of this method were validated using a standard fuel oil designed for validating ASTM D86 (Accustandard).” left out
as §2

[6] = literature values (Fioroni, et al.; Lautenschütz, et al.); cited from earlier work
[7] = literature values (Fioroni, et al.; Lautenschütz, et al.); cited from earlier work; remark: listed apart in the source

## CCCCOCOCOCOCOCOC [MB-POME5]
[1]
  Aqueous layer concentration of component: 0.1 g/L

## CCOCOCOCOCC [EE-POME3]
[2]
  Boiling point / boiling range: 185 °C
[3]
  LHV: 24 mJ/kg
[4]
  LHV: 24^# MJ/kg
[5]
  Flash point: 68 °C

## CCCCOCOCCCC [BB-POME1, dibutoxymethane]
[2]
  Boiling point / boiling range: 179 °C
[6]
  Boiling point: 187^$ °C
[7]
  Flash point: 62^$ °C
[1]
  Aqueous layer concentration of component: 0.2 g/L
[5]
  Flash point: 62 °C

## COCOC [MM-POME1, methylal]
[4]
  LHV: 23^# MJ/kg

## CCCCOCOCOCOCOC [MB-POME4]
[1]
  Aqueous layer concentration of component: 0.4 g/L

## CCO [ethanol]
[4]
  LHV: 26.8 mJ/kg

## CCCCOCOCOCOC [MB-POME3]
[1]
  Aqueous layer concentration of component: 1.1 g/L

## COCOCOCOC [MM-POME3]
[6]
  Boiling point: 156^# °C
[7]
  Flash point: 54^# °C

## COCOCOCOCOCOC [MM-POME5]
[4]
  LHV: 19^# MJ/kg
[6]
  Boiling point: 242^# °C
[7]
  Flash point: 115^# °C
[1]
  Aqueous layer concentration of component: 1.1 g/L

## COCOCOCOCOCOCOC [MM-POME6]
[1]
  Aqueous layer concentration of component: 0.5 g/L

## CCCCOCOCOCCCC [BB-POME2]
[1]
  Aqueous layer concentration of component: 0.1 g/L

## COCOCOC [MM-POME2]
[1]
  Aqueous layer concentration of component: 0.6 g/L

## CCOCOCOCC [EE-POME2]
[4]
  LHV: 26^# MJ/kg

## COCOCOCOCOC [MM-POME4]
[6]
  Boiling point: 202^# °C
[7]
  Flash point: 88^# °C
[1]
  Aqueous layer concentration of component: 1.5 g/L

## CCOCOCC [EE-POME1]
[4]
  LHV: 29^# MJ/kg

## CCOCOCOCOCOCC [EE-POME4]
[4]
  LHV: 23^# MJ/kg

## CCCCOCOCOC [MB-POME2]
[1]
  Aqueous layer concentration of component: 2.4 g/L
